{"source": "paper PMC9097292", "about": "“Activity of Estrogen Receptor β Agonists in Therapy-Resistant Estrogen Receptor-Positive Breast Cancer” (Frontiers in Oncology, 2022)", "key": {"[1]": {"biological_target": "T1, ERα (estrogen receptor α) (Homo sapiens, UniProt P03372)", "T1 construct": "gene ESR1; c-Flag ERα (OHu26586D; pcDNA3.1+/C-(K) DYK)", "T1 sequence (P03372 1-595)": "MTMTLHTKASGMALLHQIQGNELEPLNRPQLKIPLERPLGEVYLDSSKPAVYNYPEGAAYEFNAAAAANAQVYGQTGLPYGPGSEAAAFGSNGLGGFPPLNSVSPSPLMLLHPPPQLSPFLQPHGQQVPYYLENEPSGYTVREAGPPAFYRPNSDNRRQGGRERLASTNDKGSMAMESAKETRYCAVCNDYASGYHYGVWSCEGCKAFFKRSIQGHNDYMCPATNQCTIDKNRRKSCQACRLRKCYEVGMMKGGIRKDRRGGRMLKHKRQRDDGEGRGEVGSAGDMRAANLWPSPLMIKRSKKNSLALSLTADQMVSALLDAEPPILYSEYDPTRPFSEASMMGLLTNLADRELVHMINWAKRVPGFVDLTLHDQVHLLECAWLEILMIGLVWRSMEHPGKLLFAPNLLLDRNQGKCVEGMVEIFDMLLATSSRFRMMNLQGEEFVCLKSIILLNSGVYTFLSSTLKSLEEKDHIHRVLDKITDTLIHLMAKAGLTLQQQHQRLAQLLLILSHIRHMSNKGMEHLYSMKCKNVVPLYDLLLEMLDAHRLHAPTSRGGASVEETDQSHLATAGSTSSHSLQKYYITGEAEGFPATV", "experiment": "ERE-luciferase reporter assay in HEK293T cells transfected with Flag-ERα (weaker activation than ERβ)", "type": "cell-based"}, "[2]": {"biological_target": "T2, ERβ (estrogen receptor β) (Homo sapiens, UniProt Q92731)", "T2 construct": "gene ESR2; c-Flag ERβ (OHu25562D; pcDNA3.1+/C-(K) DYK)", "T2 sequence (Q92731 whole entry)": "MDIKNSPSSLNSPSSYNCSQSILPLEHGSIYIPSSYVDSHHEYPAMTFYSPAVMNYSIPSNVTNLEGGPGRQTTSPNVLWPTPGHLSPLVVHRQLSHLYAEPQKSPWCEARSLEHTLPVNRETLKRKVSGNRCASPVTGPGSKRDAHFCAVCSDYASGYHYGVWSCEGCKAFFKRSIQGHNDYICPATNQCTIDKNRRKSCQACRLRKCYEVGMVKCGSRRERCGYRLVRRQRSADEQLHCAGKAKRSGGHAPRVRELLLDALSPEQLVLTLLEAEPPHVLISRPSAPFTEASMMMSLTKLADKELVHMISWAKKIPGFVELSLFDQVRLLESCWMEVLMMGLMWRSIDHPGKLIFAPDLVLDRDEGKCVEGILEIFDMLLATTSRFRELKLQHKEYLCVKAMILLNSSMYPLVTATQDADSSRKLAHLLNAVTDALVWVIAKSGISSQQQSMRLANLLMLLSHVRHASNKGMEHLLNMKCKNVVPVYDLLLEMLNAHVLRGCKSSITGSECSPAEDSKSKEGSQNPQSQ", "experiment": "ERE-luciferase reporter assay in HEK293T cells transfected with Flag-ERβ (agonist)", "type": "cell-based"}}, "data": [{"molecule": "Oc1ccc([C@@H]2Oc3ccc(O)cc3[C@@H]3CCC[C@@H]32)cc1", "note": "[LY500307]", "values": [{"measurement": "fold induction at 0.01 µM", "setting": "[1]; HEK-293T", "result": 2.1}, {"measurement": "fold induction at 0.01 µM", "setting": "[2]; HEK-293T, read-out: ERE-luciferase reporter assay in HEK293T cells transfected with Flag-ERβ (agonis)", "result": 84}]}, {"molecule": "OSU-ERb-12", "values": [{"measurement": "ERE-luciferase reporter assay in HEK293T cells transfected with Flag-ERα (weaker)", "setting": "[1]; hek293t cells, 0.03 µM", "result": "~ 4 fold activation at 30 nmol/l"}, {"measurement": "ERE-luciferase reporter assay in HEK293T cells transfected with Flag-ERβ (agonis)", "setting": "[2]; hek293t cells, 0.03 µM", "result": "~ 40 fold activation at 30 nmol/l"}]}]}
